Where a name gives a salt, the structure may show the parent alone.

For this assay, the system named is γ-secretase. The experiment in a line: Cellular γ-secretase assay (inhibition of Aβ42 secretion). Type of assay: cell-based. As to conditions: human neuroglioma H4 cells overexpressing human APP, 22 hrs incubation. The method, then:
Human neuroglioma H4 cells overexpressing human APP were plated at 30,000 cells/well/[…] in 96-well plates in IMDM media containing 10% FCS, […] Hygromycin B and incubated for 2 h at 37° C., 5% CO2 prior to adding test compounds.
Compounds for testing were dissolved in 100% Me2SO yielding in a 10 mM stock solution. Typically […] of these solutions were further diluted in 1000 μl of IMDM media (w/o FCS). Subsequent 1:1 dilutions gave a ten point dose response curve. 100 μl of each dilution was added to the cells in 96-well plates. Appropriate controls using vehicle only and reference compound were applied to this assay. The final concentration of Me2S0 was 0.4%.
After incubation for 22 hrs at 37° C., 5% CO2, 50 μl supernatant was transferred into round-bottom 96-well polypropylene plates for detection of Aβ42. 50 μl assay buffer (50 mM Tris/Cl, pH 7.4, 60 mM NaCl, 0.5% BSA, 1% TWEEN 20) was added to the wells followed by the addition of 100 μl of detection antibody (ruthenylated BAP15 0.0625 μg/ml in assay buffer). 50 μl of a premix of capture antibody (biotinylated 6E10 antibody, 1 μg/ml) and Steptavidin-coated magnetic beads (Dynal M-280, 0.125 mg/ml) were preincubated for 1 hr at room temperature before adding the assay plates. Assay plates were incubated on a shaker for 3 hrs at room temperature and finally read in the Bioveris M8 Analyser according to the manufacturer's instructions (Bioveris).
IC50 values for inhibition of Aβ42 secretion were calculated by nonlinear regression fit analysis using XLfit 4.0 software (IDBS).
In the case of `COc1cc(Nc2nc3c(-c4ccc(Cl)cc4)cccn3n2)ccc1-n1cnc(C)c1` [Example 125, [8-(4-Chloro-phenyl)-[1,2,4]triazolo[1,5-a]pyridin-2-yl]-[3-methoxy-4-(4-methyl-imidazol-1-yl)-phenyl]-amine], it took 50 nM to reach a half-maximal effect (EC50). As to `COc1cc(Nc2nc3c(C4=CCN(CC#N)CC4)cc(C)cn3n2)ccc1-n1cnc(C)c1` [Example 108, 2-(4-(2-(3-Methoxy-4-(4-methyl-1H-imidazol-1-yl)phenylamino)-6-methyl-[1,2,4]triazolo[1,5-a]pyridin-8-yl)-5,6-dihydropyridin-1(2H)-yl)acetonitrile], the response was half-maximal at 488 nM (EC50). Consider `COc1cc(Nc2nc3ncc(C#N)c(-c4ccccc4Cl)n3n2)ccc1-n1cnc(C)c1` [Example 38, 7-(2-Chloro-phenyl)-2-[3-methoxy-4-(4-methyl-imidazol-1-yl)-phenylamino]-[1,2,4]triazolo[1,5-a]pyrimidine-6-carbonitrile], for which it took 578 nM to reach a half-maximal effect (EC50). For the compound `COc1cc(Nc2nc3nc(C)cc(C(C)(C)C)n3n2)ccc1-n1cnc(C)c1` [Example 15, (7-tert-Butyl-5-methyl-[1,2,4]triazolo[1,5-a]pyrimidin-2-yl)-[3-methoxy-4-(4-methyl-imidazol-1-yl)-phenyl]-amine acetate], the EC50 (commonly the midpoint of the concentration-response curve) was determined as 572 nM. The same measure for `COc1cc(Nc2nc3c(OC)ccc(-c4ccc(F)cc4)n3n2)ccc1-n1cnc(C)c1` [Example 22, [5-(4-Fluoro-phenyl)-8-methoxy-[1,2,4]triazolo[1,5-a]pyridin-2-yl]-[3-methoxy-4-(4-methyl-imidazol-1-yl)-phenyl]-amine]: 74 nM; for `CCCc1ncc(CN2CCOCC2)c2nc(Nc3ccc(-n4cnc(C)c4)c(OC)c3)nn12` [Example 32, [3-Methoxy-4-(4-methyl-imidazol-1-yl)-phenyl]-(8-morpholin-4-ylmethyl-5-propyl-[1,2,4]triazolo[1,5-c]pyrimidin-2-yl)-amine]: 864 nM. On to `COc1cc(Nc2nc3c(-c4ccc(F)cc4)nccn3n2)ccc1-n1cnc(C)c1` [Example 11, [8-(4-Fluoro-phenyl)-[1,2,4]triazolo[1,5-a]pyrazin-2-yl]-[3-methoxy-4-(4-methyl-imidazol-1-yl)-phenyl]-amine], for which the EC50 was 580 nM.

Turning to `COc1cc(Nc2nc3c(N4CCC(C(F)(F)F)CC4)cccn3n2)ccc1-n1cnc(C)c1` [Example 140, N-(3-methoxy-4-(4-methyl-1H-imidazol-1-yl)phenyl)-8-(4-(trifluoromethyl)piperidin-1-yl)-[1,2,4]triazolo[1,5-a]pyridin-2-amine], the EC50 stood at 180 nM.

On to `COc1cc(Nc2nc3c(-c4ccc(F)cc4Cl)cc(F)cn3n2)ccc1-n1cnc(C)c1` [Example 86, 8-(2-Chloro-4-fluorophenyl)-6-fluoro-N-(3-methoxy-4-(4-methyl-1H-imidazol-1-yl)phenyl)-[1,2,4]triazolo[1,5-a]pyridin-2-amine], for which a half-maximal effect (EC50) was put at 143 nM. Under `COc1cc(Nc2nc3ncc(C#N)c(-c4ccccc4C)n3n2)ccc1-n1cnc(C)c1` [Example 67, 2-(3-Methoxy-4-(4-methyl-1H-imidazol-1-yl)phenylamino)-7-o-tolyl-[1,2,4]triazolo[1,5-a]pyrimidine-6-carbonitrile] stands 450 nM. `COc1cccn2nc(Nc3ccc(-n4cnc(C)c4)c(C#N)c3)nc12` [Example 3, 5-(8-Methoxy-[1,2,4]triazolo[1,5-a]pyridin-2-ylamino)-2-(4-methyl-imidazol-1-yl)-benzonitrile] yielded an EC50 of 3350 nM. The same measure for `COc1cc(Nc2nc3c(OCc4ccccc4)cccn3n2)ccc1-n1cnc(C)c1` [Example 43, (8-Benzyloxy-[1,2,4]triazolo[1,5-a]pyridin-2-yl)-[3-methoxy-4-(4-methyl-imidazol-1-yl)-phenyl]-amine]: 680 nM; for `COc1cc(Nc2nc3c(-c4ccc(F)cc4Cl)ccc(C(C)(C)O)n3n2)ccc1-n1cnc(C)c1` [Example 121, 2-{8-(2-Chloro-4-fluoro-phenyl)-2-[3-methoxy-4-(4-methyl-imidazol-1-yl)-phenylamino]-[1,2,4]triazolo[1,5-a]pyridin-5-yl}-propan-2-ol]: 76 nM. `COc1cc(Nc2nc3c(-c4ccc(F)cc4)cccn3n2)ccc1-c1ccnc(C)c1` [Example 53, 8-(4-Fluorophenyl)-N-(3-methoxy-4-(2-methylpyridin-4-yl)phenyl)-[1,2,4]triazolo[1,5-a]pyridin-2-amine]: the EC50 amounted to 120 nM. Under `COc1cc(Nc2nc3n(n2)CCOC3c2ccccc2)ccc1-n1cnc(C)c1` (centres unmarked) [Example 142, N-(3-methoxy-4-(4-methyl-1H-imidazol-1-yl)phenyl)-8-phenyl-6,8-dihydro-5H-[1,2,4]triazolo[5,1-c][1,4]oxazin-2-amine] stands 232 nM. The same measure for `COc1cc(Nc2nc3c(-c4cccc(CN)c4)cc(C)cn3n2)ccc1-n1cnc(C)c1` [Example 97, 8-(3-(Aminomethyl)phenyl)-N-(3-methoxy-4-(4-methyl-1H-imidazol-1-yl)phenyl)-6-methyl-[1,2,4]triazolo[1,5-a]pyridin-2-amine dihydrochloride]: 470 nM; for `COc1cc(Nc2nc3c(-c4ccc(F)c(F)c4)cccn3n2)ccc1-n1cnc(C)c1` [Example 126, [8-(3,4-Difluoro-phenyl)-[1,2,4]triazolo[1,5-a]pyridin-2-yl]-[3-methoxy-4-(4-methyl-imidazol-1-yl)-phenyl]-amine]: 32 nM; for `COc1cc(Nc2nc3cccc(N4CCOCC4)n3n2)ccc1-n1cnc(C)c1` [Example 30, [3-Methoxy-4-(4-methyl-imidazol-1-yl)-phenyl]-(5-morpholin-4-yl-[1,2,4]triazolo[1,5-a]pyridin-2-yl)-amine]: 247 nM. The same measure for `COc1cc(Nc2nc3c(-c4ccc(F)c(Cl)c4)ccc(C(C)(C)O)n3n2)ccc1-n1cnc(C)c1` [Example 123, 2-{8-(3-Chloro-4-fluoro-phenyl)-2-[3-methoxy-4-(4-methyl-imidazol-1-yl)-phenylamino]-[1,2,4]triazolo[1,5-a]pyridin-5-yl}-propan-2-ol]: 29 nM.

Turning to `COCc1cnc(C2CCCCC2)n2nc(Nc3ccc(-n4cnc(C)c4)c(OC)c3)nc12` [Example 28, (5-Cyclohexyl-8-methoxymethyl-[1,2,4]triazolo[1,5-c]pyrimidin-2-yl)-[3-methoxy-4-(4-methyl-imidazol-1-yl)-phenyl]-amine], the response was half-maximal at 1490 nM (EC50). Compound `COc1cc(Nc2nc3c(-c4ccc(F)cc4Cl)cccn3n2)ccc1-c1ccnc(C)c1` [Example 133, [8-(2-Chloro-4-fluoro-phenyl)-[1,2,4]triazolo[1,5-a]pyridin-2-yl]-[3-methoxy-4-(2-methyl-pyridin-4-yl)-phenyl]-amine] showed an EC50 of 45 nM. In the case of `COc1cc(Nc2nc3n(n2)CCCC3c2ccc(F)cc2)ccc1-n1cnc(C)c1` (single isomer, unassigned) [Example 51], the response was half-maximal at 440 nM (EC50).

In turn, `CCCc1nc(C)cc2nc(Nc3ccc(-n4cnc(C)c4)c(C#N)c3)nn12` [Example 4, 2-(4-Methyl-imidazol-1-yl)-5-(7-methyl-5-propyl-[1,2,4]triazolo[1,5-c]pyrimidin-2-ylamino)-benzonitrile] yielded an EC50 of 1280 nM. The same measure for `COc1cc(Nc2nc3nccc(-c4ccncc4)n3n2)ccc1-n1cnc(C)c1` [Example 68, N-(3-Methoxy-4-(4-methyl-1H-imidazol-1-yl)phenyl)-7-(pyridin-4-yl)-[1,2,4]triazolo[1,5-a]pyrimidin-2-amine]: 1170 nM; for `COc1cc(Nc2nc3c(-c4ccc(F)c(Cl)c4)cc(C)cn3n2)ccc1-n1cnc(C)c1` [Example 62, [8-(3-Chloro-4-fluoro-phenyl)-6-methyl-[1,2,4]triazolo[1,5-a]pyridin-2-yl]-[3-methoxy-4-(4-methyl-imidazol-1-yl)-phenyl]-amine]: 10 nM.

The compound `COc1cc(Nc2nc3n(n2)C(c2ccc(Cl)cc2)CC(=O)N3)ccc1-n1cnc(C)c1` (centres unmarked) [Example 61, 7-(4-Chloro-phenyl)-2-[3-methoxy-4-(4-methyl-imidazol-1-yl)-phenylamino]-6,7-dihydro-4H-[1,2,4]triazolo[1,5-a]pyrimidin-5-one] yielded an EC50 of 831 nM. The same measure for `COc1cc(Nc2nc3c(-c4ccc(F)c(F)c4)ccc(C(F)(F)F)n3n2)ccc1-n1cnc(C)c1` [Example 135, 8-(3,4-difluorophenyl)-N-(3-methoxy-4-(4-methyl-1H-imidazol-1-yl)phenyl)-5-(trifluoromethyl)-[1,2,4]triazolo[1,5-a]pyridin-2-amine]: 141 nM; for `COc1cc(Nc2nc3c(-c4ccc(F)c(F)c4)cc(C)cn3n2)ccc1-n1cnc(C)c1` [Example 63, [8-(3,4-Difluoro-phenyl)-6-methyl-[1,2,4]triazolo[1,5-a]pyridin-2-yl]-[3-methoxy-4-(4-methyl-imidazol-1-yl)-phenyl]-amine]: 10 nM; for `COc1cc(Nc2nc3nc(C(F)(F)F)cc(-c4ccco4)n3n2)ccc1-n1cnc(C)c1` [Example 24, (7-Furan-2-yl-5-trifluoromethyl-[1,2,4]triazolo[1,5-a]pyrimidin-2-yl)-[3-methoxy-4-(4-methyl-imidazol-1-yl)-phenyl]-amine]: 592 nM.

For the origin of these results see patent publication US20110190269A1, “GAMMA SECRETASE MODULATORS” (priority 2010, published 2011).
